Here are results for 32 compounds from US6174909A, “4-aminotetrahydrobenzisoxazole or -isothiazole compounds” (H. Lundbeck A/S, priority 1995, dated 2001).

The structures appear in SMILES notation. Counter-ions that a name gives are not always drawn.

The test system of test [1] is GABA uptake in synaptosomes. Description: GABA uptake inhibition in synaptosomes (overall, i.e. neuronal and glial). Format: biochemical. Particulars: values marked * = Preliminary Data. Here is the method:
The inhibition of GABA Uptake was performed by the method described by Falch et. al, Drug Dev. Res., 1990,21, 169-188. By this method the overall, i.e. neuronal and glial, inhibition of GABA uptake is determined.

In test [2] the test system is isoniazide induced convulsions in mice. Description: Isoniazid antagonism (antagonism of isoniazide induced convulsions in mice). Conditions: Mus musculus, sc, 30 min before 300 mg isoniazide s.c., protected = no convulsions within 60 min, log probit analysis. Format: in vivo, mice (male NMRI/BOM). The procedure:
The test is a test for antagonism of isoniazide induced convulsions in mice.
The test substance is given s.c. to mice (male NMRI/BOM, body weight 20-25 g) and 30 min later 300 mg isoniazide is given s.c. Five mice are used per dose and a control group only receiving isoniazide is included. This dose of isoniazide induces intermittent tonic seizures.
The animals are placed individually in Macrolon type II cages and the time when convulsions first occur is recorded. The experiment is stopped after 90 min. The animals that have not had convulsions within 60 min. are recorded as + (protected). The results, i.e. the number of protected mice pr number of tested mice are stated in fractions as follows: 0/5, 1/5 . . . , 5/5.

Compound `CNC1CCCc2onc(O)c21` (racemic) [Compound 8a, (R,S)-3-Hydroxy-4-methylamino-4,5,6,7-tetrahydro-1,2-benzisoxazole, hydrobromide] came in with a 50% inhibitory concentration (IC50) in test [1] of 65 µM. This compound came in with an ED50 in test [2] of over 320 µmol/kg. In test [1], `Oc1noc2c1C(NCCCC(c1ccc(F)cc1)c1ccc(F)cc1)CCC2` (racemic) [Compound 8b, (R,S)-4-[4,4-Bis(4-fluorophenyl)butan-1-ylamino]-3-hydroxy-4,5,6,7-tetrahydro-1,2-benzisoxazole, hydrobromide] displayed an IC50 of 0.24 µM. It took a dose of 110 µmol/kg to reach the 50% effect level in test [2] (ED50). As to `CC(=O)OCCNC1CCCc2onc(O)c21` (racemic) [Compound 8c, (R,S)-4-(2-Acetyloxyethylamino)-3-hydroxy-4,5,6,7-tetrahydro-1,2-benzisoxazole, hydrobromide], in test [1], the IC50 came out at 120 µM. In addition, the ED50 in test [2] was over 120 µmol/kg. As for `Oc1noc2c1C(N1CCCC1)CCC2` (racemic) [Compound 8d, (R,S)-3-Hydroxy-4-(1-pyrrolidinyl)-4,5,6,7-tetrahydro-1,2-benzisoxazole, hydrobromide], inhibition in test [1] was half-maximal at 210 µM (IC50). Further, the ED50 in test [2] is over 140 µmol/kg. In test [1], `CCNC1CCCc2onc(O)c21` (racemic) [Compound 8e, (R,S)-4-Ethylamino-3-hydroxy-4,5,6,7-tetrahydro-1,2-benzisoxazole, hydrobromide] came in with an IC50 of 100 µM. In test [2], this compound registered an ED50 of over 300 µmol/kg. With `C=CCNC1CCCc2onc(O)c21` (racemic) [Compound 8f, (R,S)-4-(2-propen-1-ylamino)-3-hydroxy-4,5,6,7-tetrahydro-1,2-benzisoxazole, oxalate], 100 µM corresponded to half-maximal inhibition in test [1] (IC50). Also, in test [2], the ED50 amounted to 320 µmol/kg. `Oc1noc2c1C(NCCCC(c1ccccc1)c1ccccc1)CCC2` (racemic) [Compound 8g, (R,S)-4-(4,4-diphenylbutan-1-ylamino]-3-hydroxy-4,5,6,7-tetrahydro-1,2-benzisoxazole, hydrobromide] showed an IC50 in test [1] of 0.17 µM. In test [2], this compound returned an ED50 of 56 µmol/kg. `Oc1noc2c1C(NCCCCc1ccccc1)CCC2` (racemic) [Compound 8h, (R,S)-4-(4-phenylbut-1-ylamino]-3-hydroxy-4,5,6,7-tetrahydro-1,2-benzisoxazole, hydrobromide]: 4.8 µM corresponded to half-maximal inhibition in test [1] (IC50). In test [2], the ED50 stood at 150 µmol/kg. For `Oc1noc2c1C(NCCC(c1ccccc1)c1ccccc1)CCC2` (racemic) [Compound 8i, (R,S)-4-(3,3-diphenylpropan-1-ylamind]-3-hydroxy-4,5,6,7-tetrahydro-1,2-benzisoxazole, hydrobromide], in that order: 0.14 µM and 310 µmol/kg. `Oc1noc2c1C(NCCC=C1c3ccccc3CCc3ccccc31)CCC2` (racemic) [Compound 8j, (R,S)-4-[N-[3-(10,11-dihydrodibenzo[a,d]cyclohept-5-ylidene)propane-1-yl]amino]-3-hydroxy-4,5,6,7-tetrahydro-1,2-benzisoxazole, hydrobromide] returned an IC50 in test [1] of 1.1 µM. On to `CN(CCC=C1c2ccccc2CCc2ccccc21)C1CCCc2onc(O)c21` (racemic) [Compound 8k, (R,S)-4-[N-[3-(10,11 1-ihydrodibenzo[a,d]cyclohept-5-ylidene)propane-1-yl]methylamino]-3-hydroxy-4,5,6,7-tetrahydro-1,2-benzisoxazole, hydrobromide], for which, in test [2], the ED50 was 68 µmol/kg. The compound `Oc1noc2c1C(NCCCN1c3ccccc3Sc3ccccc31)CCC2` (racemic) [Compound 8l, (R,S)-4-[N-3-(Phenothiazin-10-yl)propane-1-yl]amino]-3-hydroxy4,5,6,7-tetrahydro-1,2-benzisoxazole, hydrobromide] had an ED50 in test [2] of 71 µmol/kg. `Cc1ccccc1C(CCCN(C)C1CCCc2onc(O)c21)c1ccccc1C` (racemic) [Compound 8m, (R,S)-4-[N-[4,4-Di-(2-tolyl)butan-1-yl]-rmethylamino]-3-hydroxy-4,5,6,7-tetrahydro-1,2-benzisoxazole, hydrobromide] registered an ED50 in test [2] of 27 µmol/kg. In test [2], `Cc1ccccc1C(CCCNC1CCCc2onc(O)c21)c1ccccc1C` (racemic) [Compound 8n, (R,S)-4-[N-[4,4-Di-(2-tolyl)butan-1-yl]amino]-3-hydroxy-4,5,6,7-tetrahydro-1,2-benzisoxazole, hydrobromide] gave an ED50 of 44 µmol/kg. As for `Cc1ccccc1C(=CCCN(C)C1CCCc2onc(O)c21)c1ccccc1C` (racemic) [Compound 8o, (R,S)-4-[N-[1,1-Di-(2-tolyl)but-1-en-4-yl]methylamino]-3-hydroxy-4,5,6,7-tetrahydro-1,2-benzisoxazole], the ED50 in test [2] was found to be 50 µmol/kg. The same measure, in the same setting: as for `Cc1ccccc1C(=CCCNC1CCCc2onc(O)c21)c1ccccc1C` (racemic) [Compound 8p, (R,S) -4-[N-1,1-Di-(2-tolyl)but-1-en-4-yl]amino]-3-hydroxy-4,5,6,7-tetrahydro-1,2-benzisoxazole, hydrobromide], the figure is 30 µmol/kg. In test [1], `OCCNC1CCCc2onc(O)c21` (racemic) [Compound 9a, (R,S)-4-(2-Hydroxyethylamino)-3-hydroxy-4,5,6,7-tetrahydro-1,2-benzisoxazole, hydrobromide] showed an IC50 of 180 µM. The compound also displayed an ED50 in test [2] of over 140 µmol/kg. With `CN(CCCC(c1ccc(F)cc1)c1ccc(F)cc1)C1CCCc2onc(O)c21` (racemic) [Compound 11a, (R,S)-^4-[N-[4,4-Bis(4-fluorophenyl)butan-1-yi]-N-methylamino]-3-hydroxy-4,5,6,7-tetrahydro-1,2-benzisoxazole, hydrobromide], half-maximal inhibition in test [1] (IC50) was put at 0.73 µM. Also, in test [2], the ED50 amounted to 67 µmol/kg.

Take `CN(CCCC(c1ccccc1)c1ccccc1)C1CCCc2onc(O)c21` (racemic) [Compound 11b, (R,S)-4-[-N -(4,4-Diphenylbut-1-yl)-N-methylamino]-3-hydroxy-4,5,6,7-tetrahydro-1,2-benzisoxazole, hydrobromide]: the IC50 in test [1] came out at 0.41 µM. The compound further showed an ED50 in test [2] of 640 µmol/kg.

On to `CNC1CCCc2onc(OCOC(=O)C(C)(C)C)c21` (racemic) [Compound 14a, (R,S)-4-methylamino-3-pivaloyloxymethyloxy-4,5,6,7-tetrahydro-1,2-benzisoxazole, hemioxalate], for which the IC50 in test [1] was over 300 µM. In test [2], this compound yielded an ED50 of 86 µmol/kg. For the compound `CNC1CCCc2on(COC(=O)C(C)(C)C)c(=O)c21` (racemic) [Compound 14b, (R,S)-4-methylamino-2-pivaloyloxym ethyl-4,5,6,7-tetrahydro-1,2-benz isoxazol-3-one, hemioxalate], the IC50 in test [1] is over 300 µM. It took a dose of 220 µmol/kg to reach the 50% effect level in test [2] (ED50).

In the case of `CNC1CCCc2on(C(=O)Nc3ccccc3)c(=O)c21` (racemic) [Compound 15a, (R,S)-4-methylamino-2-phenylaminocarbonyl4,5,6,7-tetrahydro-1,2benzisoxazol-3-one, hydrochloride], the IC50 in test [1] stood at 70 µM. The compound also came in with an ED50 in test [2] of over 120 µmol/kg. Take `CN(C)C1CCCc2onc(O)c21` (racemic) [Compound 18a, (R,S)-4-Dimethylamino-3-hydroxy-4,5,6,7-tetrahydro-1,2-benzisoxazole, hydrobromide]: the IC50 in test [1] came to 280 µM. In turn, `Oc1noc2c1C(NCCC=C(c1ccccc1)c1ccccc1)CCC2` (racemic) [Compound 20b, (R,S)-3-Hydroxy-4-[N-(4,4-diphenyl-3-butenyl)amino]-4,5,6,7-tetrahydro-1,2-benzioxazole hydrochloride hydrate] gave an IC50 in test [1] of 0.14 µM.

Compound `Cc1ccsc1C(=CCCNC1CCCc2onc(O)c21)c1sccc1C` (racemic) [Compound 20c, (R,S)-3-Hydroxy-4-[N-(4,4-bis[3-methylthien-2-yl]-3-butenyl)amino]-4,5,6,7-tetrahydro-1,2-benzisoxazole hydrochloride] displayed an IC50 in test [1] of 0.17 µM.

Regarding `NC1CCCc2snc(O)c21` (racemic) [Compound 26a, (R,S)-4-Amino-3-hydroxy-4,5,6,7-tetrahydro-1,2-benzisothiazole, hydrobromide], the IC50 in test [1] was over 300 µM. As for `CN(C(=O)Oc1ccccc1)C1CCCc2onc(O)c21` (racemic) [Compound 28a, (R,S)-3-Hydroxy-N-methyl-N-(4-phenyloxycarbonyl)amino-4,5,6,7-tetrahydro-1,2-benzisoxazole], it took a dose of 200 µmol/kg to reach the 50% effect level in test [2] (ED50). In test [2], `CNC1CCCc2onc(OCOC(=O)c3ccccc3)c21` (racemic) [Compound 31a, (R,S)-3-Benzoyloxymethyloxy-4-methylamino-4,5,6,7-tetrahydro-1,2-benzisoxazole, hemioxalate] gave an ED50 of 210 µmol/kg. In turn, `CNC1CCCc2onc(OCOC(=O)c3c(F)cccc3F)c21` (racemic) [Compound 31c, (R,S)-4-Methylamino-3-(2,6-difluorobenzoyloxymethyloxy)-4,5,6,7-tetrahydro-1,2-benzisoxazole, hemioxalate] showed an ED50 in test [2] of 210 µmol/kg. Turning to `CNC1CCCc2onc(O)c21` (single isomer, unassigned; (-)) [Compound 6d, (-)-3-hydroxy-4-methylamino-4,5,6,7-tetrahydro-1,2-benzisoxazole, hydrobromide], the IC50 in test [1] (hydrobromide) was over 300 µM. For `N[C@H]1CCCc2onc(O)c21` [Compound 6a, (+)-4-amino-3-hydroxy-4,5,6,7-tetrahydro-1,2-benzisoxazole, hydrochloride], the IC50 in test [1] was over 300 µM. As to `N[C@@H]1CCCc2onc(O)c21` [Compound 6b, (-)-(R)-4-amino-3-hydroxy-4,5,6,7-tetrahydro-1,2-benzisoxazole, hydrochloride], the IC50 in test [1] came to 120 µM.
